Experimental data: patent publication US20120109286A1, “ANTIMICROBIAL COATINGS” (priority 2009, published 2012)

Experiments:
Conditions in all cases: 24 h at 37° C.
S. aureus = experiment: Zone of inhibition around monomer pellets or powder; assay type: cell-based, Staphylococcus aureus
Source text: (§1) ZSB powder was used to show antimicrobial efficacy.

M. luteus = experiment: as above; assay type: cell-based, Micrococcus luteus
Source text: as §1

P. aeruginosa = experiment: Zone of inhibition around monomer pellets; assay type: cell-based, Pseudomonas aeruginosa

With O=C1C=CC(=O)[N]1[Ag]([P+](c1ccccc1)(c1ccccc1)c1ccccc1)[P+](c1ccccc1)(c1ccccc1)c1ccccc1 [PSSM, Phosphine Stabilised Silver Maleimide] the zone of inhibition (S. aureus) was “sharp ring of inhibition”, the zone of inhibition (M. luteus) was “sharp ring of inhibition” and the zone of inhibition (P. aeruginosa) was “more blurred inhibition zones”.
